EC50 data for 14 compounds are collected here from US20250170266A1 (ZYMEWORKS BC INC., priority 2022, published 2025).

What all share (assay type): cell-based
For one assay, the target named is T1, hTLR7 (Homo sapiens, UniProt Q9NYK1).
T1 construct: host or cells: HEK-Blue hTLR7 reporter cells (HEK293-derived, own knowledge)
T1 sequence (Q9NYK1 27-1049): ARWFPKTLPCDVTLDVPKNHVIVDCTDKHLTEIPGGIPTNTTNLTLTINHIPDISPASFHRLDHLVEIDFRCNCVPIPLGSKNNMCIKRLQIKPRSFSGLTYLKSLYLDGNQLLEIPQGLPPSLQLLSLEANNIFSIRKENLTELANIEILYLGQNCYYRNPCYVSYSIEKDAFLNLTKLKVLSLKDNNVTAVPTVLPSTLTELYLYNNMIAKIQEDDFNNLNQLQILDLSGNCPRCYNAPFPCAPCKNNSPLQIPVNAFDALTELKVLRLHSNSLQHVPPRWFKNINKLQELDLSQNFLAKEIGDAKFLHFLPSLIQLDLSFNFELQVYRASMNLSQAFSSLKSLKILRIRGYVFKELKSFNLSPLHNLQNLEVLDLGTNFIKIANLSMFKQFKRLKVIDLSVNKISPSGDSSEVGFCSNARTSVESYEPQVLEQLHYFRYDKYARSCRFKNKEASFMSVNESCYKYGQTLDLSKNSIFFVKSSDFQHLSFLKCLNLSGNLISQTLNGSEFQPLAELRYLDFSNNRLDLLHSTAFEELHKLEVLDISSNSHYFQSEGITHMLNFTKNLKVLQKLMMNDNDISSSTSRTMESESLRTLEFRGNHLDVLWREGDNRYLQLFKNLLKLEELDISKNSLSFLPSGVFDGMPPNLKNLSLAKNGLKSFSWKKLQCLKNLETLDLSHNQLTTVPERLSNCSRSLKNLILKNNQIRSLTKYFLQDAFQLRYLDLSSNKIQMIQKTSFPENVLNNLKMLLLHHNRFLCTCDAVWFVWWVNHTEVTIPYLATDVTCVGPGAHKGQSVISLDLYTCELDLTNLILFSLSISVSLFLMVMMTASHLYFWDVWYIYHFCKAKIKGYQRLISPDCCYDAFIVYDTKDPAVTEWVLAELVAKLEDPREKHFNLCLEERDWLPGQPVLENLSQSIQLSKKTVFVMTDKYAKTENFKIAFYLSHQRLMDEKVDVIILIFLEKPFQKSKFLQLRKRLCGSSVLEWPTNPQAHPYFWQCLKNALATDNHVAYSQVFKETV
In words: Reporter Gene Assay (RGA), HEK-Blue hTLR7 reporter cells, SEAP readout. The settings on record: overnight incubation, SEAP absorbance 620 nm. The protocol: (§1) 1.5×10^4 HEK-Blue™ hTLR7 (Invivogen, San Diego, CA) or HEK-Blue™ mTLR7 (Invivogen, San Diego, CA) reporter cells were treated with a titration series of test compound (4-fold titration from […], 11 points). Compounds were initially diluted to 1 mM in DMSO and subsequently serial-diluted in assay media (HEK-Blue™ Detection; Invivogen, San Diego, CA). Cells with test compound were incubated overnight at 37° C.+5% CO2, and the amount of secreted embryonic alkaline phosphatase (SEAP) was determined by measuring absorbance (620 nm) using a Synergy™ H1 microplate reader.
(§2) Each assay included a positive control compound (referred to herein as “benchmark,” see, e.g., TABLE 3 below, and taken from International Patent Publication No. WO2017/072662, structure shown below) and a negative control (growth medium). […] The structure of the benchmark compound from International Patent Publication No. WO 2017/072662 is as follows: […]

A further assay has as its target T2, mTLR7 (Mus musculus, UniProt P58681).
T2 construct: host or cells: HEK-Blue mTLR7 reporter cells (HEK293-derived, own knowledge)
T2 sequence (P58681 27-1050): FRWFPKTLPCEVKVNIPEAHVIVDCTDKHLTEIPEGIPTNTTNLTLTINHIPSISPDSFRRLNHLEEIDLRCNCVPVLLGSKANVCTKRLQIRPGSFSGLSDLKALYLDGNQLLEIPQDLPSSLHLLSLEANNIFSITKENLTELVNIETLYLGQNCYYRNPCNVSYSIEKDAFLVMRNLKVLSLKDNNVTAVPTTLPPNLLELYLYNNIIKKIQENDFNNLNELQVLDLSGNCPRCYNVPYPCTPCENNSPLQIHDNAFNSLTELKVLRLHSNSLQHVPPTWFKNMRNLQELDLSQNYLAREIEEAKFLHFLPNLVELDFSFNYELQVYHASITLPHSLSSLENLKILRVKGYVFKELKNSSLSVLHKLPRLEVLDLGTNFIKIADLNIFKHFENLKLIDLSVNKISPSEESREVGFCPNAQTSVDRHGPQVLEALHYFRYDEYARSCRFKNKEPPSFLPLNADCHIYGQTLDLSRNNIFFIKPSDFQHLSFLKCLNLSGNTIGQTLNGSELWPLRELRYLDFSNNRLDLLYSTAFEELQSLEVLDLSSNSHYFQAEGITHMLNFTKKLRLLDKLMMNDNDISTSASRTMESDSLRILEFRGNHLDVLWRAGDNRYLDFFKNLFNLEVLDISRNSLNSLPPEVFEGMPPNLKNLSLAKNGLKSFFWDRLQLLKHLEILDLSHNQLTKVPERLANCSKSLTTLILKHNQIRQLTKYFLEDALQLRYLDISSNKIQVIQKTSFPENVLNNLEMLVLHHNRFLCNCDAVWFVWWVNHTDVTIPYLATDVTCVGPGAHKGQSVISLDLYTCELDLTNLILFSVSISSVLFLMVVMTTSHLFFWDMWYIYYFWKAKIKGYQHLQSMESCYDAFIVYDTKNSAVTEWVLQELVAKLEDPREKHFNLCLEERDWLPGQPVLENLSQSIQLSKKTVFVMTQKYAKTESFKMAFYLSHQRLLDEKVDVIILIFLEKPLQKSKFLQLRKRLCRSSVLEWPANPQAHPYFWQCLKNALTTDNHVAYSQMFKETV
The experiment in a line: Reporter Gene Assay (RGA), HEK-Blue mTLR7 reporter cells, SEAP readout. The settings on record: overnight incubation, SEAP absorbance 620 nm. As for the experimental part:
as §1, §2

Assay [1] concerns Human peripheral blood mononuclear cells (PBMCs). In words: Human PBMC Assay, cytokine release (HTRF). The settings on record: PBMC, 24 hours.
Excerpt: Human peripheral blood mononuclear cells (PBMCs) were isolated from fresh Leukopak using magnetic separation. Briefly, erythrocytes and granulocytes were magnetically labeled with Erythrocyte Depletion MicroBeads (Miltenyi Biotec) and Granulocyte Depletion MicroBeads (Miltenyi Biotec), respectively. The cell suspension was loaded onto a Multi-24 Column Block (Miltenyi Biotec) and placed in the magnetic field of a MultiMACS Cell24 Separator Plus (Miltenyi Biotec). The unlabelled PBMCs were collected in the run through. PBMCs were resuspended in CryoStor® CS10 ([…]) and frozen. On the day before the assay, PBMCs were thawed in warm assay buffer (RPMI+10% FBS) and resuspended in assay buffer+10 ng/ml hIL3 (R&D Systems). Cells were rested at 37° C.+5% CO2 overnight. The following day, cells were spun down and resuspended in fresh assay buffer. 300,000 cells were added to each well of plates containing test compound. For test compound preparation, each compound was initially diluted to 1 mM in DMSO and further diluted in assay buffer. A 4-fold 11-point titration starting from 15 μM was performed. Cells were incubated with test compound at 37° C.+5% CO2 for 24 hours before supernatant was harvested. Human interleukin 6 (hIL6), human tumor necrosis factor alpha (hTNFα), and human interferon alpha (hIFNα) were quantified in the supernatant using homogeneous time resolved fluorescence (Cisbio).
as §2
In general terms: Time-resolved FRET reads energy transfer from a long-lived donor to a nearby acceptor.

[2] abbreviates: hIFNα in supernatant, EC50 values approximated and divided into groups, read-out: PBMC IFNa EC50.

Structures are written as SMILES. pEC50: −log10 of the molar value. Like-named read-outs stand apart in the source and are kept apart here. A value given as a limit tells only on which side of the number the result lay.

As a reminder, the pEC50 is the EC50 on a negative log10 scale, so that one unit is a factor of ten. With `CCOc1nc(N)c2nc(O)n(Cc3ccc(CNC4CCNC4)cc3OC)c2n1` (stereo in doubt) [Compound 133, (S)-6-amino-2-ethoxy-9-(2-methoxy-4-((pyrrolidin-3-ylamino)methyl)benzyl)-9H-purin-8-ol], the pEC50 at hTLR7 was 6.75; at mTLR7 it was 6.07; in assay [1] (setting [2]), < 8.00.

For `CCCCCNc1nc(N)nc2ccn(Cc3ccc(CN4CCN(CCNC(=O)CC(SC[C@@H](N)C(=O)O)C(=O)O)CC4)cc3OC)c12` (stereo partly drawn) [Benchmark, reference compound], the pEC50 is 7.57 on hTLR7 and 7.02 on mTLR7.

`CCOc1nc(N)c2nc(O)n(Cc3ccc(CNC/C=C/CN)cc3OC)c2n1` [Compound 126, (E)-6-amino-9-(4-(((4-aminobut-2-en-1-yl)amino)methyl)-2-methoxybenzyl)-2-ethoxy-9H-purin-8-ol]: the negative-log EC50 (pEC50) at hTLR7 is 7.48; at mTLR7 it was 6.18; in assay [1] (setting [2]), < 8.00.

As for `CCOc1nc(N)c2nc(O)n(Cc3ccc(CNC4CCCNC4)cc3OC)c2n1` (stereo not drawn) [Compound 127, 6-amino-2-ethoxy-9-(2-methoxy-4-((piperidin-3-ylamino)methyl)benzyl)-9H-purin-8-ol], the pEC50 is 6.76 on hTLR7, 5.99 at mTLR7 and < 8.00 in assay [1] (setting [2]).

Take `CCOc1nc(N)c2nc(O)n(Cc3ccc(CNC4CNC4)cc3OC)c2n1` [Compound 129, 6-amino-9-(4-((azetidin-3-ylamino)methyl)-2-methoxybenzyl)-2-ethoxy-9H-purin-8-ol]: the pEC50 on hTLR7 is 7.09; at mTLR7 it was 6.27; in assay [1] (setting [2]) it was < 8.00.

Take `CCOc1nc(N)c2nc(O)n(Cc3ccc(CNC4CC5(CNC5)C4)cc3OC)c2n1` [Compound 130, 9-(4-(((2-azaspiro[3.3]heptan-6-yl)amino)methyl)-2-methoxybenzyl)-6-amino-2-ethoxy-9H-purin-8-ol]: the pEC50 at hTLR7 is 6.70; at mTLR7, 5.90; in assay [1] (setting [2]) it was < 8.00.

`CCOc1nc(N)c2nc(O)n(Cc3ccc(CNCCCN4CCNCC4)cc3OC)c2n1` [Compound 131, 6-amino-2-ethoxy-9-(2-methoxy-4-(((3-(piperazin-1-yl)propyl)amino)methyl)-benzyl)-9H-purin-8-ol]: the pEC50 is 7.06 on hTLR7, 6.17 at mTLR7 and < 8.00 in assay [1] (setting [2]).

As to `CCOc1nc(N)c2nc(O)n(Cc3ccc(CNCCN4CCNCC4)cc3OC)c2n1` [Compound 134, 6-amino-2-ethoxy-9-(2-methoxy-4-(((2-(piperazin-1-yl)ethyl)amino)methyl)-benzyl)-9H-purin-8-ol], the pEC50 at hTLR7 was 6.44; on mTLR7, 5.78; in assay [1] (setting [2]), < 8.00.

For the compound `CCOc1nc(N)c2nc(O)n(Cc3ccc(CNCC(O)CN4CCOCC4)cc3OC)c2n1` (stereo not drawn) [Compound 136, 6-amino-2-ethoxy-9-(4-(((2-hydroxy-3-morpholinopropyl)amino)methyl)-2-methoxybenzyl)-9H-purin-8-ol], the pEC50 at hTLR7 was 6.65; at mTLR7, 5.77; in assay [1] (setting [2]), < 8.00.

Turning to `CCOc1nc(N)c2nc(O)n(Cc3ccc(CN4CCN(C(=O)CCCCCNC(=O)CC(SC[C@@H](N)C(=O)O)C(=O)O)CC4)cc3OC)c2n1` (stereo partly drawn) [Compound 148, 2-(((S)-2-amino-2-carboxyethyl)thio)-4-((6-(4-(4-((6-amino-2-ethoxy-8-hydroxy-9H-purin-9-yl)methyl)-3-methoxybenzyl)piperazin-1-yl)-6-oxohexyl)amino)-4-oxobutanoic Acid], the pEC50 at hTLR7 was 6.78; on mTLR7, 5.90; in assay [1] (setting [2]), < 8.00.

For the compound `CCOc1nc(N)c2nc(O)n(Cc3ccc(CN4CCN(C(=O)CCOCCOCCOCCNC(=O)CC(SC[C@@H](N)C(=O)O)C(=O)O)CC4)cc3OC)c2n1` (stereo partly drawn) [Compound 149, (19S)-19-amino-1-(4-(4-((6-amino-2-ethoxy-8-hydroxy-9H-purin-9-yl)methyl)-3-methoxybenzyl)piperazin-1-yl)-16-carboxy-1,14-dioxo-4,7,10-trioxa-17-thia-13-azaicosan-20-oic Acid], the pEC50 on hTLR7 was 6.28; at mTLR7, 5.90; in assay [1] (setting [2]), < 8.00.

As for `CCCCOc1nc(N)c2nc(O)n(Cc3ccc(CNCc4ccccc4)cc3OC)c2n1` [Compound 165, 6-amino-9-(4-((benzylamino)methyl)-2-methoxybenzyl)-2-butoxy-9H-purin-8-ol], the pEC50 is > 10.00 on hTLR7; > 10.00 at mTLR7; > 10.00 in assay [1] (setting [2]); 5.16 in assay [1] (hIL6 in supernatant, read-out: PBMC IL6 EC50).

`CCCCOc1nc(N)c2nc(O)n(Cc3ccc(CCN4CCC5(CCNCC5)CC4)cc3OC)c2n1` [Compound 177, 9-(4-(2-(3,9-diazaspiro[5.5]undecan-3-yl)ethyl)-2-methoxybenzyl)-6-amino-2-butoxy-9H-purin-8-ol]: the pEC50 on hTLR7 is 6.39; on mTLR7 it was 4.81; in assay [1] (setting [2]), < 8.00.

On to `CCCCOc1nc(N)c2nc(O)n(Cc3ccc(CCNC4CCNCC4)cc3OC)c2n1` [Compound 179, 6-amino-2-butoxy-9-(2-methoxy-4-(2-(piperidin-4-ylamino)ethyl)benzyl)-9H-purin-8-ol], for which the pEC50 on hTLR7 is 6.74; at mTLR7, 6.38; in assay [1] (setting [2]), < 8.00.
